Experimental data as given in ChEMBL document CHEMBL5046313, “Synthesis and Optimization of Nitroxide-Based Inhibitors of Ferroptotic Cell Death in Cancer Cells and Macrophages” (ACS Med Chem Lett, 2022).

Assays:
[1] = tested on: HT-1080; assay: Anti-ferroptotic activity against Erastin-induced ferroptosis in human HT-1080 cells assessed as cell activity measured after 24 hrs by Cell Titer-Glo luminescent assay; assay type: functional, cell-based; details: HT-1080, 24 h
[2] = tested on: RAW264.7; assay: Anti-ferroptotic activity against RSL-3 induced ferroptosis in mouse RAW264.7 cells assessed as cell activity measured after 24 hrs by Cell Titer-Glo luminescent assay; assay type: functional, cell-based; details: RAW264.7, 24 h
[3] = Lipophilicity, log P of the compound; assay type: physicochemical; details: octanol/water
[4] = Metabolic stability in mouse liver S9 fraction assessed as half life measured upto 60 mins in presence of NADPH by LC-MS/MS analysis; assay type: ADME, subcellular
[5] = Metabolic stability in human liver S9 fraction assessed as half life measured upto 60 mins in presence of NADPH by LC-MS/MS analysis; assay type: ADME, subcellular

EC50 [1] [nM] | logP [3] | half-life [4] [min] | half-life [5] [min] | Structure (SMILES) | EC50 [2] [nM]
70 | 2.8 |  |  | CCOC(=O)c1ccc(NC2CCCCC2)c(N)c1 | 40
330 | 4.2 |  |  | CC1(C)CC(NC(=O)C(C)(C)/C=C/[C@H](NC(=O)OC(C)(C)C)c2ccccc2)CC(C)(C)N1 | 
800 | 3.5 |  |  | CC(C)C[C@@H](/C=C/C1(C(=O)NC2CC(C)(C)NC(C)(C)C2)CC1)NC(=O)OC(C)(C)C | 1130
280 | 7.9 |  |  | CC1(C)CC(NC(=O)C(/C=C/[C@@H](NC(=O)OC(C)(C)C)c2ccc(F)cc2)(Cc2ccc(F)cc2)Cc2ccc(F)cc2)CC(C)(C)N1 | 
130 | 7.2 | 3 | 7 | CC(C)C[C@@H](/C=C/C(Cc1ccccc1)(Cc1ccccc1)C(=O)NC1CC(C)(C)NC(C)(C)C1)NC(=O)OC(C)(C)C | 370
430 | 6 |  |  | CC1(C)CC(NC(=O)C(/C=C/[C@@H](NC(=O)OC(C)(C)C)c2ccoc2)(Cc2ccc(F)cc2)Cc2ccc(F)cc2)CC(C)(C)N1 | 
240 | 4 |  |  | CC(C)C[C@@H](/C=C/C(C)(C)C(=O)NC1CC(C)(C)NC(C)(C)C1)NC(=O)OC(C)(C)C | 1150
> 2000 | 5.8 |  |  | CC1(C)CC(NC(=O)C(/C=C/[C@@H](NC(=O)OC(C)(C)C)c2ccc(F)cc2)(Cc2ccc(F)cn2)Cc2ccc(F)cn2)CC(C)(C)N1 | 
2200 | 3.1 |  |  | CC(C)C[C@@H](/C=C/C1(C(=O)NC2CC(C)(C)NC(C)(C)C2)CCOCC1)NC(=O)OC(C)(C)C | 
1300 | 2.9 |  |  | CC1(C)CC(NC(=O)C/C=C/[C@H](NC(=O)OC(C)(C)C)c2ccccc2)CC(C)(C)N1 | 2760
250 | 4 | 3 | 7 | CC(C)C[C@H](/C=C/C(C)(C)C(=O)NC1CC(C)(C)NC(C)(C)C1)NC(=O)OC(C)(C)C | 1170
3580 | 2.8 | 9 | 5 | CC(C)C[C@@H](/C=C/CC(=O)NC1CC(C)(C)NC(C)(C)C1)NC(=O)OC(C)(C)C | 4090
240 | 6 |  |  | CC1(C)CC(NC(=O)C(/C=C/[C@H](NC(=O)OC(C)(C)C)c2ccoc2)(Cc2ccc(F)cc2)Cc2ccc(F)cc2)CC(C)(C)N1 | 
180 | 7.6 |  |  | CC(C)C[C@H](/C=C/C(Cc1ccc(F)cc1)(Cc1ccc(F)cc1)C(=O)NC1CC(C)(C)NC(C)(C)C1)NC(=O)OC(C)(C)C | 
340 | 7.9 | 3 | 7 | CC1(C)CC(NC(=O)C(/C=C/[C@H](NC(=O)OC(C)(C)C)c2ccc(F)cc2)(Cc2ccc(F)cc2)Cc2ccc(F)cc2)CC(C)(C)N1 | 250
330 | 7.6 |  |  | CC(C)C[C@@H](/C=C/C(Cc1ccc(F)cc1)(Cc1ccc(F)cc1)C(=O)NC1CC(C)(C)NC(C)(C)C1)NC(=O)OC(C)(C)C | 600
560 | 4.4 |  |  | CC(C)C[C@@H](/C=C/C1(C(=O)NC2CC(C)(C)NC(C)(C)C2)CCCC1)NC(=O)OC(C)(C)C | 
